Measurements published in patent publication US6432883B1, “Methods of treating plants with glycolic acid” (Emerald BioAgriculture Corporation, priority 2000, dated 2002).
Marks after values point to notes of the source that are not given here.

Experiments:
Assay type in all cases: in vivo
Bottytis cinerea = assay: Excised lettuce leaves, post-harvest pathogen stress: radius of colonized tissue; details: for Average Disease Progression: radius of colonized tissue 3 days post-inoculation
Protocol: Waldmann's MTO dark green Grand Rapids leaf lettuce seed, lot# 15529, was purchased from Johnny's Selected Seeds, Albion, Me., and grown 8 plants per 1 gallon pot. Circular steel-blue blotter papers (Anchor Paper Co, St. Paul, Minn.) were steam autoclaved and fitted into disposable petri dishes. […]
Blotters were saturated with 4.5 ml sterile tap water. Individual leaves (20) were excised and placed into a treatment solution for 5-10 seconds or left non-treated. Excess fluid was removed from the leaf surface. These leaves were then placed singly, 1 leaf per dish and adaxial side up, on the moist blotters. Dish lids were replaced and dishes stacked, bagged and returned to the petri dish box for 24 hour dark storage at room temperature (65-68° F.).
Inoculum (Bottytis cinerea) was grown on potato dextrose agar (PDA) plates until dense conidia production was present. These were blended into a paste with non-inoculated PDA and sterile tap water. Inoculum concentration was determined by dilution plating to be 1960 cfu/ml.
A small spot of inoculum paste was dotted onto the center of 16 of the 20 leaf pieces per treatment stack 24 hours after test substance application.
Disease progression assessment was made at 3 days±2 hours post-inoculation by measuring the radius of colonized tissue in mm.

cabbage [1] = assay: Cabbage drought stress: fresh and dry weights; details: drought, water withheld 13 days, 5, 15, 50 ppm
Protocol: Market Prize, F1 cabbage seed, lot 88955, as described in example 7, was treated identically as in example 7, except that drought stress was imposed by withholding water 7 days following the second spray and continuing to withhold water for 13 sequential days thereafter. Drought tolerance was assessed by measuring both the fresh and dried weights of the plants.

cabbage [2] = assay: Cabbage cold shock and heat treatment: fresh and dry weights; parameters: Avg. Fresh Weights ± SD / Avg. Dry Weights ± SD: unit not given here
Excerpt: Seeds of Heads Up cabbage were obtained from Harris Seeds, Rochester, N.Y. and grown in 7″×5¼″×2¼″ (17.78 cm×13.34×5.72 cm) Kord inserts (Park Seeds, Greenwood, S.C.) containing Bacto potting soil (Michigan Peat Company, Houston, Tex.). After plants had germinated, cabbage seedlings were thinned to six plants per insert. Inserts were kept in 12″×8¾″ (30.48 cm×22.23 cm) perma nest trays (Park Seed) with two inserts per tray. Each treatment consisted of three replicate trays containing a total of eighteen cabbage plants. After 12 days, some of the plant were sprayed with Glypure® at 25 ppm, 100 ppm, and 200 ppm. Treated plants were given a second application of Glypure® 7 days later. Untreated and treated plants were subjected to freeze and heat shock treatments 24 hours later. Cold shock was administered by exposing plants to −3° C. for 2 hours and 20 minutes. Heat treatment was provided by placing plants in an oven for 5 hours at 46.5° C. One week following the temperature treatments, the plants were harvested and the fresh and dry weights were determined.

[3] = test system: Erysiphe graminis/Ooidium; assay: Wheat pathogen stress: disease index on leaves and heads; details: for Disease Index Heads / Disease Index Leaves: wheat, (1-7 severity rating)(% incidence)/100
Protocol: Kulm wheat seed, lot CR, was purchased from Albert Lea Seed House, Albert Lea, Minn. and grown 100 plants per 1 gallon pot, 3 pots per experimental unit and 1 experimental unit per each of 6 replications. The plants were spray-treated first at late-tillering to jointing and again at “in boot” to anthesis with 8 ml solution per pot. Aerial application of the pathogen stress (Erysiphe graminis/Ooidium conidia cultured on other Kulm wheat plants infected by incoming natural inoculum) was made to the plants at 14 days following the first treatment application, in addition to other naturally occurring inoculum.
Treatments consisted of non-inoculated and inoculated groups of non-treated (NTC), water and 0.05% surfactant-blank (SB) controls and 5, 25, and 50 ppm of glycolic acid.
Disease assessment was made 3 days prior to head harvesting using a 1-7 based severity scale and % incidence. A disease index [(1-7 based severity rating)(% incidence)/100] was created to better describe the compound effect. The results in Table 3 below show the data for each treatment and the rating scale definitions.

[4] = Cold Stress (−3° C., 2 hours 20 minutes), 25 ppm
[5] = Cold Stress (−3° C., 2 hours 20 minutes), 200 ppm
[6] = Heat Stress (46.5° C., 5 hours), 25 ppm
[7] = Heat Stress (46.5° C., 5 hours), 200 ppm

For `O=C(O)CO` [glycolic acid], the “Average Disease Progression” value (Bottytis cinerea; 10 ppm leaf dip) was 4.0* mm, the “disease severity versus control lettuce” value (Bottytis cinerea; 10 ppm, lettuce leaves, α=0.05) was “statistically significant (α=0.05) decrease” and the “Average Disease Progression” value (Bottytis cinerea; 25 ppm leaf dip) was 9.8 mm. The “Average Disease Progression” value (Bottytis cinerea; 75 ppm leaf dip) was 9.4 mm, the “Average Disease Progression” value (Bottytis cinerea; 150 ppm leaf dip) was 13.6 mm and the “Average Disease Progression” value (Bottytis cinerea; 500 ppm leaf dip) was 12.1 mm. For the same compound, the “Average Disease Progression” value (Bottytis cinerea; 1000 ppm leaf dip) was 11.6 mm, the “fresh weight of the cabbage compared to controls” value (cabbage [1]; FIG. 3) was “statistically significantly increased” and the “dry weight of the cabbage compared to controls” value (cabbage [1]; FIG. 4) was “statistically significantly increased”. The “reduction in fresh and dry weights caused by the adverse temperatures, versus untreated plants” value (cabbage [2]; 200 ppm) was “statistically significantly lower”, the “Avg. Dry Weights ± SD” value (cabbage [2]; [4]) was 3.1 ± 0.1 and the “Avg. Fresh Weights ± SD” value (cabbage [2]; [4]) was 28.6 ± 2.7. For the same compound, the “Avg. Dry Weights ± SD” value (cabbage [2]; [5]) was 3.2 ± 0.2, the “Avg. Fresh Weights ± SD” value (cabbage [2]; [5]) was 31.4 ± 1.3 and the “Avg. Dry Weights ± SD” value (cabbage [2]; [6]) was 2.5 ± 0.3. For the same compound, the “Avg. Fresh Weights ± SD” value (cabbage [2]; [6]) was 10.2 ± 2.6, the “Avg. Dry Weights ± SD” value (cabbage [2]; [7]) was 3.5 ± 0.1 and the “Avg. Fresh Weights ± SD” value (cabbage [2]; [7]) was 15.2 ± 0.6. The “disease severity observed in wheat heads versus control wheat” value ([3]; 5 ppm and 25 ppm, α=0.05) was “statistically significant (α=0.05) decrease”, the “Disease Index Heads” value ([3]; 5 ppm spray) was 2.5* and the “Disease Index Leaves” value ([3]; 5 ppm spray) was 7.6*. The “Disease Index Heads” value ([3]; 25 ppm spray) was 13.4*, the “Disease Index Leaves” value ([3]; 25 ppm spray) was 7.0* and the “Disease Index Heads” value ([3]; 50 ppm spray) was 18.6*. For the same compound, the “Disease Index Leaves” value ([3]; 50 ppm spray) was 36.9 and the “disease severity in wheat leaves versus control wheat” value ([3]; all glycolic acid treated wheat, α=0.05) was “statistically significant (α=0.05) decrease”.
